According to US11738022B2, “Methods for inducing pupil dilation” (THE REGENTS OF THE UNIVERSITY OF COLORADO, A BODY CORPORATE, priority 2017, dated 2023):
Counter-ions that a name gives are not always drawn.

Assays:
pupil = experiment: Pupil dilation measured with Neuroptics pupillometer after α-2 agonist pre-treatment and/or phenylephrine; format: in vivo, human; details: for Pupil size, Treated eye / Surgical Work area, Treated eye / Pupil size, Non-treated eye / Surgical Work area, Non-treated eye: photopic conditions (1258.925 lux) after dilation with phenylephrine 10%; for Pupil size, Non-treated eye / Surgical Work area, Non-treated eye: eye without pre-treatment
Protocol: Dilation medication used was Phenylephrine hydrochloride 10% (Akorn, Inc). Pupillometer used was a Neuroptics DP-2000 Binocular Pupillometer).
Dilation using phenylephrine hydrochloride 10% was conducted in both eyes of the test subject to use as a control against the other compounds being tested.
After this, dilation using phenylephrine hydrochloride 2.5% or phenylephrine hydrochloride 10% was conducted to investigate the effects of the compound on pupil dilation.
Apracionidine 0.5% was administered in the right eye of the test subject three (3) times a day for 4 days. After this, dilation using phenylephrine hydrochloride 10% was conducted to investigate the effects of the compound on pupil dilation.
After this, dilation using phenylephrine hydrochloride 10% was conducted to investigate the effects of the compound on pupil dilation.
A washout period of multiple months was undertaken in between each experiment.
Pupil measurements were obtained using a Neuroptics pupillometer. Parameters were as follows: Scotopic conditions for 1 second, followed by photopic conditions for 4 seconds (1258.925 lux), followed by scotopic conditions for 10 seconds. This allowed for investigation of scotopic pupil size, photopic pupil size, and scotopic pupil size recovery after the light stimulus concluded.
The pupils of the subject's pretreated right eye and untreated control left eye were then measured under both scotopic and photopic conditions for baseline measurements (FIG. 6A). Photopic conditions consisted of a 4 second window where a light was shining in both eyes simultaneously. […]
The experiment was repeated at a higher dosage wherein the subject was administered a second ophthalmic formulation containing 10% phenylephrine to both eyes. 30 minutes after instillation of 10% phenylephrine, the pupils of the subject were then measured under both scotopic and photopic conditions (FIG. 6C). […] Because the area of a circle is dependent on the radius squared (area of a circle=πr^2), the increase in area that is created from a increasing the pupil dilation size is not linear.
The results were then compared.

α receptors (α2:α1) = details: affinity ratio; cited from earlier work
[1] = after pre-treatment of right eye only, 3 times a day for 4 days, before phenylephrine
[2] = after pre-treatment of right eye only, 3 times a day for 4 days, before phenylephrine, left eye not treated
[3] = dilation pre and post treatment with α 2 agonist: treated eye vs control measurements of same eye
[4] = non-treated eye dilation compared to treated eye dilation
[5] = right eye pre-treated 3 times a day for 4 days, then phenylephrine 10% both eyes
[6] = right eye pre-treated 3 times a day for 4 days, then phenylephrine 10% both eyes, left eye not pre-treated
[7] = phenylephrine hydrochloride 10% both eyes, no pre-treatment (FIG. 5B)

## Nc1cc(Cl)c(N=C2NCCN2)c(Cl)c1 [Apraclonidine, apraclonidine]
pupil; after dilation with phenylephrine hydrochloride 10%
  effect of pre-treatment on dilation: hindered dilation
pupil; [1]
  CH LStim Ave: 62%
  CH RPupil Ave: 61%
  CH RStim Ave: 62%
  CH Right: 61%
  CLAT LStim Ave: 0.21 s
  CLAT RPupil Ave: 0.21 s
  CLAT RStim Ave: 0.21 s
  CLAT Right: 0.21 s
  DELTA LStim Ave: 4.25 mm
  DELTA RPupil Ave: 4.20 mm
  DELTA RStim Ave: 4.25 mm
  DV LStim Ave: 1.08 mm/s
  DV RPupil Ave: 1.19 mm/s
  DV RStim Ave: 1.08 mm/s
  DV Right: 1.19 mm/s
  MCV LStim Ave: 5.93 mm/s
  MCV RPupil Ave: 6.01 mm/s
  MCV RStim Ave: 5.93 mm/s
  Max LStim Ave: 6.87 mm
  Max RStim Ave: 6.87 mm
  Max Right: 6.91 mm
  Min LStim Ave: 2.62 mm
  Min RPupil Ave: 2.71 mm
  Min RStim Ave: 2.62 mm
  Min Right: 2.71 mm
pupil; [2]
  CH LPupil Ave: 63%
  CH Left: 63%
  CLAT LPupil Ave: 0.21 s
  CLAT Left: 0.21 s
  DELTA Left: 4.28 mm
  DV Left: 0.97 mm/s
  MCV Left: 5.85 mm/s
  Max Left: 6.82 mm
  Min Left: 2.54 mm
pupil; [3]
  Pupil size change (%): −17.83%
  Surgical work area change (%): −32.48%
pupil; [4]
  Pupil size change (%): −40.4%
  Surgical work area (%): −64.48%
pupil
  Pupil size, Treated eye: 2.95 mm
  Surgical Work area, Treated eye: 6.831 mm^2
  Pupil size, Non-treated eye: 4.95 mm
  Surgical Work area, Non-treated eye: 19.23 mm^2
pupil; [5]
  CH LStim Ave: 54%
  CH RPupil Ave: 62%
  CH RStim Ave: 54%
  CH Right: 62%
  CLAT LStim Ave: 0.22 s
  CLAT RPupil Ave: 0.21 s
  CLAT RStim Ave: 0.22 s
  CLAT Right: 0.21 s
  DELTA LStim Ave: 4.59 mm
  DELTA RPupil Ave: 4.88 mm
  DELTA RStim Ave: 4.59 mm
  DV LStim Ave: 1.21 mm/s
  DV RPupil Ave: 1.18 mm/s
  DV RStim Ave: 1.21 mm/s
  DV Right: 1.18 mm/s
  MCV LStim Ave: 3.80 mm/s
  MCV RPupil Ave: 5.03 mm/s
  MCV RStim Ave: 3.80 mm/s
  Max LStim Ave: 8.54 mm
  Max RStim Ave: 8.54 mm
  Max Right: 7.83 mm
  Min LStim Ave: 3.95 mm
  Min RPupil Ave: 2.95 mm
  Min RStim Ave: 3.95 mm
  Min Right: 2.95 mm
pupil; [6]
  CH LPupil Ave: 46%
  CH Left: 46%
  CLAT LPupil Ave: 0.23 s
  CLAT Left: 0.23 s
  DELTA Left: 4.30 mm
  DV Left: 1.24 mm/s
  MCV Left: 2.58 mm/s
  Max Left: 9.25 mm
  Min Left: 4.95 mm
α receptors (α2:α1)
  α2:α1 affinity: 150

## CNC[C@H](O)c1cccc(O)c1 [Phenylephrine hydrochloride 10%, phenylephrine]
pupil; [7]
  CH LPupil Ave: 58%
  CH LStim Ave: 57%
  CH Left: 58%
  CH RPupil Ave: 56%
  CH RStim Ave: 57%
  CH Right: 56%
  CLAT LPupil Ave: 0.24 s
  CLAT LStim Ave: 0.22 s
  CLAT Left: 0.24 s
  CLAT RPupil Ave: 0.20 s
  CLAT RStim Ave: 0.22 s
  CLAT Right: 0.20 s
  DELTA LStim Ave: 4.63 mm
  DELTA Left: 4.65 mm
  DELTA RPupil Ave: 4.62 mm
  DELTA RStim Ave: 4.63 mm
  DV LStim Ave: 1.43 mm/s
  DV Left: 1.40 mm/s
  DV RPupil Ave: 1.45 mm/s
  DV RStim Ave: 1.43 mm/s
  DV Right: 1.45 mm/s
  MCV LStim Ave: 4.62 mm/s
  MCV Left: 4.78 mm/s
  MCV RPupil Ave: 4.46 mm/s
  MCV RStim Ave: 4.62 mm/s
  Max LStim Ave: 8.11 mm
  Max Left: 8.01 mm
  Max RStim Ave: 8.11 mm
  Max Right: 8.21 mm
  Min LStim Ave: 3.48 mm
  Min Left: 3.36 mm
  Min RPupil Ave: 3.59 mm
  Min RStim Ave: 3.48 mm
  Min Right: 3.59 mm
pupil
  Pupil size, Treated eye: 3.59 mm
  Surgical Work area, Treated eye: 10.12 mm^2
  Pupil size, Non-treated eye: 3.36 mm
  Surgical Work area, Non-treated eye: 8.862 mm^2
